Laboratory results: US10829453B2, “Antagonists of the kappa opioid receptor” (University of Kansas, priority 2014, dated 2020)
Counter-ions that a name gives are not always drawn.

Tests used:
hKOR = biological target: T1, hKOR (Homo sapiens, UniProt P41145); test: βArrestin2 recruitment (DiscoveRx PathHunter) assay; assay type: cell-based; conditions: for β arrestin 2 Inhibition (% U69,593 Stimulation) 1 μm: compound at 1 μm; for β arrestin 2 Inhibition (% U69,593 Stimulation) 1 μm / β arrestin 2 Inhibition (% U69,593 Stimulation) 10 Nm / β arrestin 2 Inhibition (% U69,593 Stimulation) 100 Nm: set concentration of U69,593; for β arrestin 2 Inhibition (% U69,593 Stimulation) 10 Nm: compound at 10 Nm; for β arrestin 2 Inhibition (% U69,593 Stimulation) 100 Nm: compound at 100 Nm; for IC50: read-out: IC50 (nM) ± S.E.M. βarr2
T1 construct: host or cells: U2OS (PathHunter U2OS-hKOR-βarrestin2-DX), purchased engineered cell line
Description: (§1) Chinese hamster ovary (CHO) cells were virally transfected to express HA-tagged recombinant human kappa opioid receptors (CHO-hKOR cell line) and maintained in DMEM/F-12 media (Invitrogen) supplemented with 10% fetal bovine serum, 1% penicillin/streptomycin, and 500 μg/ml geneticin as described in Schmid, C. L.; Streicher, J. M.; Groer, C. E.; Munro, T. A.; Zhou, L.; Bohn, L. M. Functional selectivity of 6′-guanidinonaltrindole (6′-GNTI) at kappa opioid receptors in striatal neurons. […] A DiscoveRx PathHunter™ U2OS cell line expressing βarrestin2 and hKOR (U2OS-hKOR-βarrestin2-DX) was purchased from DiscoveRx Corporation (Fremont, Calif.) and maintained MEM with 10% fetal bovine serum, 1% penicillin/streptomycin, 500 μg/ml geneticin and 250 μg/ml hygromycin B. All cells were grown at 37° C. (5% CO2 and 95% relative humidity).
Briefly, 5,000 cells/well were plated overnight in Opti-MEM containing 1% fetal bovine serum, 1% penicillin/streptomycin. Cells were pretreated with antagonist for 15 min at 37° C. followed by the addition of 1 μM U69,593 and a 90 minute incubation at 37° C. PathHunter™ detection reagent was added and cells incubated at room temperature for 60 minutes. Chemiluminescence was detected using a SpectraMax® M5e Multimode Plate Reader (Molecular Devices). βarrestin2 recruitment assays were also performed using an imaging platform (Cellomics) to visulalize translocation of a fluorescent protein tagged βarrestin2 to the membrane of KOR expressing U2OS cells.
(§2) All compounds were run in parallel assays in 2-4 replicates per individual experiment. All studies were performed n≥3 independent experiments in multiple replicates. For determination of antagonist inhibition, each individual experiment was normalized to the percentage of maximal U69,593 stimulation. The efficacy and potency values were obtained from the averages of the nonlinear regression analysis performed on each individual curve and are reported as the mean±S.E.M.

[1] = biological target: T2, human kappa opioid receptors (Homo sapiens, UniProt P41145); test: [35S]GTPγS binding (G protein coupling) assay, antagonism of U69,593; assay type: biochemical; conditions: CHO-hKOR membranes, 100 nM U69,593, n ≥ 3; for IC50: read-out: IC50 (nM) ± S.E.M. [35S]GTPγS
T2 construct: HA; expressed in transfected cells; host or cells: Chinese hamster ovary (CHO) cells, virally transfected
Description: as §1
Briefly, cells were serum starved for 1 hour and membranes were prepared. Each reaction was performed at room temperature and contained 15 μg of membrane protein, 40 μM GDP, ˜0.1 nM [^35S]GTPγS and increasing concentrations of compounds in assay buffer (50 mM Tris-HCl, pH 7.4, 100 mM NaCl, 5 mM MgCl2, 1 mM EDTA). Directly after the addition of test compounds, 100 nM U69,593 was added to yield a total volume of 200 μL. After 1 hour, reactions were quenched by rapid filtration through GF/B filters and radioactivity was counted with a TopCount NXT high throughput screening microplate scintillation and luminescence counter (PerkinElmer Life Sciences).
as §2

[2] = biological target: T2, human kappa opioid receptors; test: In-cell western ERK1/2 phosphorylation, inhibition of U69,593 induced ERK phosphorylation; assay type: cell-based; conditions: hKOR-CHO cells, 100 nM U69,593, n ≥ 3; for IC50: read-out: IC50 (nM) ± S.E.M. ERK
Description: as §1
Briefly, hKOR-CHO cells were plated in 384-well plate at 15,000 cells per well and incubated at 37° C. overnight. After an hour serum starve, cells were treated with compound followed by the addition of 100 nM U69,593 and a 10 minute incubation at 37° C. Cells were fixed, permeabilized, blocked, and stained with primary antibodies for phosphorylated ERK1/2 and total-ERK1/2 (1:300 and 1:400, respectively) at 4° C. overnight. Cells then incubated with Li-Cor secondary antibodies (anti-rabbit IRDye800CW, 1:500; anti-mouse IRDye680LT, 1:1500) and imaged with the Odyssey Infrared Imager (Li-Cor Biosciences, Lincoln, Nebr.) at 700 and 800 nm.
as §2

C57BL/6 mice = test: Locomotor activity in open field, alone and against U50,488; assay type: in vivo
[3] = Concentrations in plasma and brain tissue of mice after a single IP dose; conditions: single 10 mg/kg IP
[4] = mouse brain, single administration; cited from earlier work
[5] = U2OS-hKOR-βarrestin2-DX cells, 1 μM U69,593, n ≥ 3

T2 sequence (P41145 whole entry): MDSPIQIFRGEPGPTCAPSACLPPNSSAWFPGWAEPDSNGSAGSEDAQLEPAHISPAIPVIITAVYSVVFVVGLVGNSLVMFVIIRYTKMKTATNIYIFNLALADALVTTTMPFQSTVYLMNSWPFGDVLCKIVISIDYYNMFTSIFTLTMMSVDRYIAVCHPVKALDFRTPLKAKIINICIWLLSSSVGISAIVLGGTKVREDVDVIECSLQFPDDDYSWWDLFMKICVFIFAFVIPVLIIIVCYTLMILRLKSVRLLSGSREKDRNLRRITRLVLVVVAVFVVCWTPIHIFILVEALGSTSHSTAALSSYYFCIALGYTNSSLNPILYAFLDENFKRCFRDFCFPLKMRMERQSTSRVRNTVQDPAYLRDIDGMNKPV
T1 sequence (P41145 whole entry): as above

Structure (SMILES)	β arrestin 2 Inhibition (% U69,593 Stimulation) 1 μm (hKOR)	β arrestin 2 Inhibition (% U69,593 Stimulation) 10 Nm (hKOR)	β arrestin 2 Inhibition (% U69,593 Stimulation) 100 Nm (hKOR)	IC50 [1] [nM]	IC50 [2] [nM]	IC50 (hKOR; [5]) [nM]	also measured
COc1ccc(CN(CCNC(=O)c2ccc3c(c2)CCN(S(=O)(=O)c2ccc(C)cc2)C3)C(C)(C)C)cc1 [Compound 1b, N-(2-(tert-butyl(4-methoxybenzyl)amino)ethyl)-2-tosyl-1,2,3,4-tetrahydroisoquinoline-6-carboxamide]	0.0 % U69,593 Stimulation	0.0 % U69,593 Stimulation	0.8 % U69,593 Stimulation	–	–	–	–
Cc1ccc(S(=O)(=O)N(C)Cc2ccc(C(=O)N(C)CCN(Cc3ccccc3)C(C)C)cc2)cc1 [Compound 1a, N-(2-(Benzyl(isopropyl)amino)ethyl)-N-methyl-4-((N,4-dimethylphenylsulfonamido)methyl)benzamide, reference compound]	–	–	–	–	–	–	IC50 (nM) ± S.E.M. [35S]GTPγS [1]: inactive; IC50 (nM) ± S.E.M. ERK [2]: inactive; IC50 (nM) ± S.E.M. βarr2 (hKOR; [5]): inactive
Cc1ccc(S(=O)(=O)N2CCc3cc(C(=O)NCCN(Cc4ccc(Cl)cc4)C(C)(C)C)ccc3C2)cc1 [Compound 1l, N-(2-((4-Chlorobenzyl)(tert-butyl)amino)ethyl)-2-tosyl-1,2,3,4-tetrahydroisoquinoline-6-carboxamide]	1.5 % U69,593 Stimulation	29.9 % U69,593 Stimulation	0.4 % U69,593 Stimulation	–	–	–	effect of pretreatment on U50,488 hypolocomotion (C57BL/6 mice; 10-minute pretreatment, 10 mg/kg i.p., vs vehicle pretreatment followed by U50,488, FIG. 3): prevents the development of U50,488 hypolocomotion; suppression of locomotor (ambulatory) activity compared to vehicle (C57BL/6 mice; C57BL/6 mice, open field, 1 hour, FIG. 2): not to suppress activity compared to vehicle; clearance from brain tissue ([3]; 4h measurement): almost fully cleared; crossing of the blood brain barrier into the CNS ([3]; brain tissue, within 0.5 h): cross the blood brain barrier into the CNS at concentrations similar to norBNI
Cc1ccc(S(=O)(=O)N2CCc3cc(C(=O)NCCN(Cc4ccc(Br)cc4)C(C)(C)C)ccc3C2)cc1 [Compound 1m, N-(2-((4-Bromobenzyl)(tert-butyl)amino)ethyl)-2-tosyl-1,2,3,4-tetrahydroisoquinoline-6-carboxamide]	–	–	–	2.9 ± 1.2	87 ± 17	93 ± 30	–
CCc1ccc(S(=O)(=O)N2CCc3cc(C(=O)NCCN(Cc4ccc(Br)cc4)C(C)C)ccc3C2)cc1 [Compound 1g, N-(2-((4-Bromobenzyl)(isopropyl)amino)ethyl)-2-((4-ethylphenyl)sulfonyl)-1,2,3,4-tetrahydroisoquinoline-6-carboxamide]	–	–	–	33 ± 11	314 ± 56	350 ± 68	–
Oc1ccc2c3c1O[C@H]1c4[nH]c5c(c4C[C@@]4(O)[C@@H](C2)N(CC2CC2)CC[C@]314)C[C@@]1(O)[C@H]2Cc3ccc(O)c4c3[C@@]1(CCN2CC1CC1)[C@H]5O4 [norBNI, nor-binaltorphimine dihydrochloride, reference compound]	0.9 % U69,593 Stimulation	0.1 % U69,593 Stimulation	0.6 % U69,593 Stimulation	–	–	–	time after which still detected in brain tissue [4]: more than 21 days; presence in brain tissue ([3]; after 72 h): still significantly present
Cc1ccc(S(=O)(=O)N2CCc3cc(C(=O)NCCN(Cc4ccccc4)C(C)(C)C)ccc3C2)cc1 [Compound 1h, N-(2-(Benzyl(tert-butyl)amino)ethyl)-2-tosyl-1,2,3,4-tetrahydroisoquinoline-6-carboxamide]	–	–	–	5.28 ± 0.6	49.1 ± 9.7	104 ± 8.2	–
Cc1cc(C)c(S(=O)(=O)N2CCc3cc(C(=O)NCCN(Cc4ccc(Br)cc4)C(C)(C)C)ccc3C2)c(C)c1 [Compound 1n, N-(2-((4-Bromobenzyl)(tert-butyl)amino)ethyl)-2-(mesitylsulfonyl)-1,2,3,4-tetrahydroisoquinoline-6-carboxamide]	–	–	–	106 ± 16	1340	710 ± 150	–
Cc1cc(C)c(S(=O)(=O)N2CCc3cc(C(=O)NCCN(Cc4ccccc4)C(C)C)ccc3C2)c(C)c1 [Compound 1c, N-(2-(Benzyl(isopropyl)amino)ethyl)-2-(mesitylsulfonyl)-1,2,3,4-tetrahydroisoquinoline-6-carboxamide]	–	–	–	113 ± 42	1120	930 ± 150	–
